Test results as given in ChEMBL document CHEMBL3785011, “New IKK inhibitors: Synthesis of new imidazo[1,2-a]quinoxaline derivatives using microwave assistance and biological evaluation as IKK inhibitors” (Eur J Med Chem, 2016).
Activity calls are given as the source filed them. The rule behind the calls is not given here.

How the values were obtained:
[1] = molecular target: T1, Inhibitor of nuclear factor kappa-B kinase subunit alpha (Homo sapiens) (UniProt O15111); assay: Inhibition of human recombinant His tagged IKK1 expressed in baculovirus at 10 uM after 60 mins by Adapta assay
T1 sequence (whole entry): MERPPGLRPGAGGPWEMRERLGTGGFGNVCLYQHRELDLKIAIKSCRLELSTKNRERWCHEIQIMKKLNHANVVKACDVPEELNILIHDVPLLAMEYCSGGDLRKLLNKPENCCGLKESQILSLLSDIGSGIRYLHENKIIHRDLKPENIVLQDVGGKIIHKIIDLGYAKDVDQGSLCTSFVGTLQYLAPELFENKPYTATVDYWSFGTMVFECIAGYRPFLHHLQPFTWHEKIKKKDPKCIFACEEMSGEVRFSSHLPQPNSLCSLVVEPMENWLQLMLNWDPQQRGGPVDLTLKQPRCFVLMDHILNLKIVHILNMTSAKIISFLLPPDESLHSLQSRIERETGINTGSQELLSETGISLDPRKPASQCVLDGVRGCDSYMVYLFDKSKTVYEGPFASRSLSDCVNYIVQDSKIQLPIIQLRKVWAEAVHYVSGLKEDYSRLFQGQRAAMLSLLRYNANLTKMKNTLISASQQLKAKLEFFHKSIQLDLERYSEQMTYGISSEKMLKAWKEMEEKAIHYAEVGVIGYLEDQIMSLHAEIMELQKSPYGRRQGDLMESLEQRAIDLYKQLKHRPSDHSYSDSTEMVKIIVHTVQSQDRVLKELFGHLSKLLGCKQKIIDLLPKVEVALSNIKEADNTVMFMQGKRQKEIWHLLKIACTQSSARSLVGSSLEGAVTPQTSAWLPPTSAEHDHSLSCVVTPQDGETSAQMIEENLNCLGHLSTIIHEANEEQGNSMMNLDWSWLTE

[2] = molecular target: T2, Inhibitor of nuclear factor kappa-B kinase subunit beta (Homo sapiens) (UniProt O14920); assay: Inhibition of human recombinant GST tagged IKK2 expressed in baculovirus using Ser/Thr05 peptide as substrate at 10 uM after 60 mins by Z-LYTE assay
T2 sequence (whole entry): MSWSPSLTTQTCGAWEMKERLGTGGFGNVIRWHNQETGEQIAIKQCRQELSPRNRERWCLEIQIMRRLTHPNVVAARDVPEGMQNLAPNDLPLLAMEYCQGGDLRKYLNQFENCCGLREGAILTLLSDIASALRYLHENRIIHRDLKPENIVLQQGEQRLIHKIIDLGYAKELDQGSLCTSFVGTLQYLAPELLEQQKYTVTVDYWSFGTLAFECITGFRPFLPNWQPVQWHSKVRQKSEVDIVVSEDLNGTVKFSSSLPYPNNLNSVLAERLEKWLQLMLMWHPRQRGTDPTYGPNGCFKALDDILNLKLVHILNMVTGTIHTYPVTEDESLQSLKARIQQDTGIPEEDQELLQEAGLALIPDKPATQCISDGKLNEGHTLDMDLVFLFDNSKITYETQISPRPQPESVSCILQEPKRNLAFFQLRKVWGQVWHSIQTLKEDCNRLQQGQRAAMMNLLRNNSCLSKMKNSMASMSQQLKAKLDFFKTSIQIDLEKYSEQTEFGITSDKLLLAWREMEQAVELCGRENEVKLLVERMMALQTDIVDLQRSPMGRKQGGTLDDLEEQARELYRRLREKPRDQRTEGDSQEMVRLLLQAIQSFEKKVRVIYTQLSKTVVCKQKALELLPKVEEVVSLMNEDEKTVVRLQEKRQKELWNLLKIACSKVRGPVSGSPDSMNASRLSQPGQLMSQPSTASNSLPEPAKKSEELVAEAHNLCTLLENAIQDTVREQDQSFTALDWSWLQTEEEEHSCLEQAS

[3] = molecular target: T3, Inhibitor of nuclear factor kappa-B kinase subunit beta (Homo sapiens, UniProt O14920); assay: Inhibition of human recombinant GST tagged IKK2 expressed in baculovirus using Ser/Thr05 peptide as substrate after 60 mins by Z-LYTE assay
T3 sequence (O14920 whole entry): T2 sequence (whole entry)

SMILES	inhibition [1]	inhibition [2]	IC50 [3]
CNc1nc2ccccc2n2c(Br)cnc12	23%	60%	–
CNc1nc2ccc(C)cc2n2c(-c3cccc(OC)c3)cnc12	3%	3%	–
CNc1nc2cc(C)ccc2n2c(C)cnc12	19%	57%	–
CNc1nc2ccc(C)cc2n2c(Br)cnc12	13%	72%	0.324 µM
CNc1nc2ccc(C)cc2n2c(C)cnc12	1%	65%	0.773 µM
CNc1nc2cc(C)ccc2n2c(Br)cnc12	26%	54%	–
CNc1nc2cc(C)ccc2n2c(-c3cccc(OC)c3)cnc12	7%	inactive	–
CNc1nc2cc(C)ccc2n2ccnc12	9%	50%	–
CNc1nc2ccccc2n2c(-c3cccc(OC)c3)cnc12	13%	2%	–
CNc1nc2ccc(C)cc2n2ccnc12	9%	64%	0.579 µM
CNc1nc2ccccc2n2c(C)cnc12	7%	61%	–
Cc1ccc2nc(NCCN)c3ncc(C)n3c2c1	8%	64%	–
CNc1nc2ccccc2n2ccnc12	7%	54%	–
